Test results from publication PMC9186373, “Design, synthesis, and biological evaluation of novel carbazole derivatives as potent DNMT1 inhibitors with reasonable PK properties” (Journal of Enzyme Inhibition and Medicinal Chemistry, 2022).
Where two headings read alike, the source gives them in different places.

Legend:
LSD1 = test: Methylation inhibition assay (AlphaLisa), LSD1; assay type: biochemical; conditions: 1 - selected enzyme inhibition/DNMT1 inhibition; 50 µM
Protocol: (§1) All the compounds were first screened using an ELISA EpiQuik DNA methyltransferase (DNMT) activity/inhibitor assay kit (Epigentek). To measure the effects of the compounds on human DNMT1 activity, 200 nM purified DNMT1 was incubated with 50 µM and 100 µM of the different compounds and S-adenosylmethionine in the DNMT assay buffer in the assay plate at 37 °C for 2 h[36]. Next, every sample was incubated with the capture and detection antibody, followed by incubation with developer solution for 10 min at room temperature. The absorbance was measured at 450 nm using a POLARstar Omega microplate reader (BMG). S-Adenosylhomocysteine (AdoHcy) was used as a positive control. Methylation inhibition assays for EZH2, LSD, and G9a were performed in modified Tris, pH 9.0, buffer using AlphaLisa technology. An amount of 10 µL of the reaction system contained a corresponding concentration of SAM (Sigma) (EZH2 50 µM, LSD 50 µM, and G9a 50 µM), which was the Km value in each enzymatic reaction, plus 100 nM biotinylated peptide H3 (1–21) (synthesis by GLChina) and the relevant enzyme concentration (0.03 nM EZH2, 0.03 nM LSD, and 0.03 nM G9a). The proteins were preincubated with various compound concentrations for 15 min at room temperature before the substrate and SAM were added. After 60 min of incubation at room temperature, acceptor and donor AlphaLisa beads were added according to the manufacturer’s recommendations. The signals were read in Alpha mode with an EnSpire multimode plate reader (PerkinElmer). IC50 values were derived by fitting the data for the inhibition percentage to a dose-response curve by non-linear regression in GraphPad Prism 5.0[20].
(§2) In addition to DNMT1, there are many other methyltransferases that can bind with S-adenosyl-L-methionine (SAM) to facilitate transmethylation reactions[24]^,[25]. To investigate the selectivity of these potent compounds for DNMT1, we then evaluated the inhibitory activities against DNMT1 and other important methyltransferases at the concentration of 50 µM, including DNMT3A/3L, DNMT3B/3L, and other SAM-dependent enzymes[1]^,[2]^,[26], such as EZH2[27], LSD1[28], G9a (histone H3 lysine 9 methyltransferase)[29].
(§3) 493 Relative selectivity index
(§4) 494 Relative selectivity index of DNMT1 is calculated by formula: DNMT1-selectivity
(§5) 495 index =1 - selected enzyme inhibition/DNMT1 inhibition. The closer
(§6) 496 that this value is to 1 or even more than 1, the better DNMT1-selectivity the of the
(§7) 498 Table S1. Relative selectivity index of DNMT1
Cpd. […]

EZH2 = test: Methylation inhibition assay (AlphaLisa), EZH2; assay type: biochemical; conditions: 50 µM; for Relative selectivity index of DNMT1 vs EZH2: 1 - selected enzyme inhibition/DNMT1 inhibition
Protocol: as §1, §2, §3, §4, §5, §6, §7
Cpd. […]

DNMT3B/3L = test: Methyltransferase enzymatic selectivity profiling, DNMT3B/3L; assay type: biochemical; conditions: 1 - selected enzyme inhibition/DNMT1 inhibition; 50 µM
Protocol: as §2
(§8) Here, the selectivity of non-nucleoside DNMT1 inhibitors is somewhat predictable because other methyltransferases mentioned above catalyse different substrates and share very low homology with DNMT1, even in their catalytic domain[30–32]. Subsequently, the screened compounds were evaluated in a dose-dependent assay against HCT116 (human colon cancer cell line) and A549 (human lung carcinoma cell line).
as §3, §4, §5, §6, §7
Cpd. […]

human DNMT1 = test: ELISA EpiQuik DNA methyltransferase (DNMT) activity/inhibitor assay; assay type: biochemical; conditions: 200 nM purified DNMT1, EpiQuik kit; for Inh% at 50 μM: 50 μM compound; for Inh% at 100 μM: 100 μM compound
Protocol: as §1
DNMT1 inhibition test was performed on 30 candidates to verify their biochemical activities. The EpiQuik DNA methyl-transferase (DNMT) activity/inhibitor assay kit (Epigentek) was used to identify the activity of synthetic compounds.

[1] = system: G9a (histone H3 lysine 9 methyltransferase); test: Methylation inhibition assay (AlphaLisa), G9a; assay type: biochemical; conditions: 50 µM; for Relative selectivity index of DNMT1 vs G9a: 1 - selected enzyme inhibition/DNMT1 inhibition
Protocol: as §1, §2, §3, §4, §5, §6, §7
Cpd. […]

DNMT3A/3L = test: Methyltransferase enzymatic selectivity profiling, DNMT3A/3L; assay type: biochemical; conditions: 1 - selected enzyme inhibition/DNMT1 inhibition; 50 µM
Protocol: as §2, §8, §3, §4, §5, §6, §7
Cpd. […]

DNMT1 = DNMT1 (Homo sapiens, UniProt P26358); test: H3-labelled radioactive methylation assay; assay type: biochemical; conditions: H3-labeled radioactive methylation assay; 40 nM DNMT1
Protocol: The DNMT1 radioactive methylation inhibition assays were performed in 30 µL reactions containing 0.1 µM adenosyl-L-methionine S-[methyl-^3H] (^3H-SAM, ^15 Ci/mmol, PerkinElmer), 0.25 µg/mL poly (dI-dC)·poly (dI-dC) (Sigma), 40 nM DNMT1 in 50 mM Tris-HCl, pH 8.0, 1 mM DTT, 5% glycerol, and 100 µg/mL BSA. The proteins were preincubated with a range of compound concentrations for 15 min at room temperature before adding the substrate and [^3H] SAM. After 60 min of incubation at 37 °C, the reaction systems were transferred to a MultiScreen HTS filter plate (Millipore), and the plate was washed 3 times with doubly distilled H2O via a vacuum. The radioactivity was determined by liquid scintillation counting (MicroBeta, PerkinElmer). IC50 values were derived by fitting the data for the inhibition percentage to a dose-response curve by non-linear regression in GraphPad Prism 5.0.
To quantitatively analyse DNMT1 inhibitory effect, the H^3-labelled radioactive methylation assay was conducted to measure the methyltransferase activity of DNMT1 at a range of concentrations for these compounds.

[2] = system: HCT116 (human colon cancer cells); test: MTT assay, HCT116; assay type: cell-based
Protocol: (§9) The human lung cancer cells (A549) and human colon cancer cells (HCT116) were cultured in an RPMI-1640 medium containing 10% FBS, 100 U/mL streptomycin, and 100 U/mL penicillin at 37 °C in a humidified atmosphere with 5% CO2. All compounds were dissolved in DMSO and stock solutions were stored at −20 °C. Reagents were freshly diluted to the marked concentrations with a culture medium before use. DMSO concentration in experimental conditions never exceeded 0.1% (v/v). All cell lines were provided by the cell laboratory, School of pharmaceutical sciences, Guangzhou Medical University.
(§10) Cell viability was detected using an MTT assay kit. Cells were seeded into 96-well plates at a density of ∼1.0 × 10^4/well. 24 h later, sextuplicate wells were treated with media and new compounds at a fixed concentration (50 µM). After 24, 48, and 72 h, the drug-containing medium was replaced by a 100 µL fresh medium with 5 mg/mL MTT solution. After 4 h of incubation, the medium with MTT was removed, and 100 µL of DMSO was added to each well. The plates were gently agitated until the purple formazan crystals were dissolved, and the OD490 was determined using a […] (Olympus BX53, Japan). The data were calculated and plotted as the percent viability compared to the control.

[3] = system: A549 (human lung cancer cells); test: MTT assay, A549; assay type: cell-based
Protocol: as §9, §10

PK study in SD rats = assay type: in vivo; conditions: rat, plasma, SD male rats; for AUC(0-t) / Tmax / half-life: mean ± SD (n = 3); for bioavailability: p.o. 10 mg/kg vs i.v. 2 mg/kg, F = (AUC p.o. × Dose i.v.)/(AUC i.v. × Dose p.o.) × 100%
Protocol: In vivo pharmacokinetic properties of WK-22, WK-23, WK-27, and DC_517 were performed by Medicilon Company, Shanghai, China. SPF-grade SD male rats (8 groups, n = 3 rats per group) with a body weight of 230–260 g were purchased from Shanghai SIPPR-BK LAB Animal Ltd., Shanghai, China, and used for the pharmacokinetic analysis of the tested compounds. All animals were deprived of food overnight after the cannulation surgery. Subsequently, the tested compounds WK-23 and DC_517 were dissolved/suspended in 5% DMSO, 10% Solutol, and 85% water, and the tested compounds WK-22 and WK-27 were dissolved/suspended in 5% DMSO, 40% PEG400, and 55% saline for intravenous administration (i.v.) and oral administration (p.o.), respectively. A final dosage of 2.0 and 10.0 mg/kg rat of the formulated compounds was administered for i.v. and p.o. purposes, respectively, and the blood samples were taken at various time points during a 24 h period. At different time points, blood samples were collected from the femoral vein. The plasma samples were obtained after centrifugation (6800 g, 6 min, 2–8 °C) and stored at −80 °C until the assay. The AUC (area under concentration-time curve) was calculated through the trapezoidal rule with extrapolation to time infinity. The concentration of the compounds in the blood was analysed by LC-MS/MS (Shimadzu liquid chromatographic system and SCIEX Triple Quad 5500+ mass spectrometer, Applied Biosystems, Ontario, Canada). The Tmax, T1/2, and Cmax value was obtained through visual inspection of the plasma concentration-time curve. The Vss value was generated from DAS 3.2.8 software. The F value of WK-23 was calculated with the formula: F = (AUC p.o. × Dose i.v.)/(AUC i.v. × Dose p.o.) × 100%.

DNMT1, sequence (P26358 whole entry): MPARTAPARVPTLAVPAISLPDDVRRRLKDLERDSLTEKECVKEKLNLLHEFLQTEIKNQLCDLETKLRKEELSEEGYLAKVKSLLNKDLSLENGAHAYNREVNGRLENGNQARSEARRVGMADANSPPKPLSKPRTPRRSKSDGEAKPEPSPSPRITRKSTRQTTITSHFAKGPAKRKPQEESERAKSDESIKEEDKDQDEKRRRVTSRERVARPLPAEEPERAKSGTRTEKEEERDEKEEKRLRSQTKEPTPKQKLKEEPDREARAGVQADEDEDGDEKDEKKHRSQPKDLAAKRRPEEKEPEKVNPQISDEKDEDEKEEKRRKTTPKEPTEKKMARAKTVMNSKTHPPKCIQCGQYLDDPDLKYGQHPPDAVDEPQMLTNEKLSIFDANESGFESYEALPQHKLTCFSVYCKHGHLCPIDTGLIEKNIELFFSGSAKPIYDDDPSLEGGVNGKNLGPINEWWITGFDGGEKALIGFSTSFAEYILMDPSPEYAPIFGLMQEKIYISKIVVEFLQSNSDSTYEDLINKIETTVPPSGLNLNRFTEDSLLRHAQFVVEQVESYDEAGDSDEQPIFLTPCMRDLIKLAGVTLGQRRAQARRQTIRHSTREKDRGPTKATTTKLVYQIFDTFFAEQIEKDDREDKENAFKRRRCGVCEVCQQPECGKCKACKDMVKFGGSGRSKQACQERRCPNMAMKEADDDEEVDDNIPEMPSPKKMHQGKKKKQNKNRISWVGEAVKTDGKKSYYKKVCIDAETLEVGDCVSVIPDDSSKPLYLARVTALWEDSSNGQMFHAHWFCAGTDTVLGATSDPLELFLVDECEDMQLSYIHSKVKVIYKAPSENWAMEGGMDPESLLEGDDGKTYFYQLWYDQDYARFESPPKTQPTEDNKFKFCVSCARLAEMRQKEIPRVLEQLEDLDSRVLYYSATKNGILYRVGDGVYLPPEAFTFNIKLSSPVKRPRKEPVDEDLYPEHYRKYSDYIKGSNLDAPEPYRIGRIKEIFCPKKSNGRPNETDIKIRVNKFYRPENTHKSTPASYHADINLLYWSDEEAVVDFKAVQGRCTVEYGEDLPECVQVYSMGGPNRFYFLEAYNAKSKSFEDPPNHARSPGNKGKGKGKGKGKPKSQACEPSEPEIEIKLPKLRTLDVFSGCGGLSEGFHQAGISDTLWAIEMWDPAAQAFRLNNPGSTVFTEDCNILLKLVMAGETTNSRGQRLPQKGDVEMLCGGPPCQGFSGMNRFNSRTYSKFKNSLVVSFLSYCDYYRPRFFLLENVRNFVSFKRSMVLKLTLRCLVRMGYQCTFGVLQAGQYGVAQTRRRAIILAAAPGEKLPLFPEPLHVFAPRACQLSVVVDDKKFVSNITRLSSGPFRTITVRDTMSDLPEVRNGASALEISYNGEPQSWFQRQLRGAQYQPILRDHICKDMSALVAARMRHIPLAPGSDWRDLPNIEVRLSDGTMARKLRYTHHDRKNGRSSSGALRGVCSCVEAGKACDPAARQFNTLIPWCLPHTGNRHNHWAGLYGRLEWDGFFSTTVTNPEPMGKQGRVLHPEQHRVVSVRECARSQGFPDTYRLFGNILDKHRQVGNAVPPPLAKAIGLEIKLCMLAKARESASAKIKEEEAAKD

melting point | Relative selectivity index of DNMT1 vs DNMT 3B/3L (DNMT3B/3L) | Inh% at 50 μM (human DNMT1) | Inh% at 100 μM (human DNMT1) | Relative selectivity index of DNMT1 vs G9a [1] | Relative selectivity index of DNMT1 vs DNMT 3A/3L (DNMT3A/3L) | IC50 (DNMT1) | SMILES | Relative selectivity index of DNMT1 vs LSD1 (LSD1) | Relative selectivity index of DNMT1 vs EZH2 (EZH2) | other results
136 to 138 °C | 1.29 | 78% | 93% | 0.91 | 0.67 | 9.2 µM | CC(CO)NCC(O)Cn1c2ccc(F)cc2c2cc(F)ccc21 (centres unmarked) [WK-19, 2-((3-(3,6-Difluoro-9H-carbazol-9-yl)-2-hydroxypropyl)amino)propan-1-ol] | 0.29 | 1.01 | inhibition at 50 µM ([2]; HCT-116, 24 h, read-out: Inh % at 50 μM, HCT116, 24 h): 5.6%; inhibition at 50 µM ([2]; HCT-116, 48 h, read-out: Inh % at 50 μM, HCT116, 48 h): 59.4%; inhibition at 50 µM ([2]; HCT-116, 72 h, read-out: Inh % at 50 μM, HCT116, 72 h): 88.3%; inhibition at 50 µM ([3]; 24 h, read-out: Inh % at 50 μM, A549, 24 h): 7.9%; inhibition at 50 µM ([3]; 48 h, read-out: Inh % at 50 μM, A549, 48 h): 68.4%; inhibition at 50 µM ([3]; 72 h, read-out: Inh % at 50 μM, A549, 72 h): 79.9%
150 to 152 °C | 0.03 | 100% | 100% | 0.97 | 0.03 | – | OC[C@H]1CN(CC(O)COC(Cn2c3ccccc3c3cc(F)ccc32)Cn2c3ccc(F)cc3c3cc(F)ccc32)CCN1 (stereo partly drawn) [WK-27, 1-((1-(3,6-Difluoro-9H-carbazol-9-yl)-3-(3-fluoro-9H-carbazol-9-yl)propan-2-yl)oxy)-3-((R)-3-(hydroxymethyl)piperazin-1-yl)propan-2-ol] | 0.05 | 0.9 | inhibitory activity against EZH2 (EZH2; Figure 3): nearly no inhibitory activities; AUC(0-t) (PK study in SD rats; iv, i.v. (2 mg/kg)): 0.427 ± 0.06 µg·h/mL; Tmax (PK study in SD rats; iv, i.v. (2 mg/kg)): 0.1 h; half-life (PK study in SD rats; iv, i.v. (2 mg/kg)): 11.5 ± 1.2 h; bioavailability (PK study in SD rats; oral): 1.8%; bioavailability (PK study in SD rats; po): 1.8 ± 1.9%; AUC(0-t) (PK study in SD rats; po, p.o. (10 mg/kg)): 0.0285 ± 0.04 µg·h/mL; Tmax (PK study in SD rats; po, p.o. (10 mg/kg)): 2.7 ± 1.2 h; half-life (PK study in SD rats; po, p.o. (10 mg/kg)): 3.9 ± 2.5 h; inhibitory activity against G9a ([1]; Figure 3): nearly no inhibitory activities

Continued, compound first:

SMILES | melting point | Relative selectivity index of DNMT1 vs DNMT 3B/3L (DNMT3B/3L) | Inh% at 50 μM (human DNMT1) | Inh% at 100 μM (human DNMT1) | Relative selectivity index of DNMT1 vs G9a [1] | Relative selectivity index of DNMT1 vs DNMT 3A/3L (DNMT3A/3L) | IC50 (DNMT1) | Relative selectivity index of DNMT1 vs LSD1 (LSD1) | Relative selectivity index of DNMT1 vs EZH2 (EZH2) | other results
CC(C)(C)NCC(O)COC(Cn1c2ccccc2c2cc(F)ccc21)Cn1c2ccccc2c2cc(F)ccc21 (centres unmarked) [WK-25, 1-((1,3-Bis(3-fluoro-9H-carbazol-9-yl)propan-2-yl)oxy)-3-(tert-butylamino)propan-2-ol] | 183 to 185 °C | 1.44 | 100% | 100% | 0.99 | 0.94 | – | 0.02 | 0.89 | –
CC(CO)NCC(O)Cn1c2ccccc2c2cc(F)ccc21 (centres unmarked) [WK-7, 2-((3-(3-Fluoro-9H-carbazol-9-yl)-2-hydroxypropyl)amino)propan-1-ol] | 119 to 121 °C | – | 67% | 83% | – | – | 9.6 µM | – | – | –
OC(CNCCc1ccccc1)Cn1c2ccc(F)cc2c2cc(F)ccc21 (centres unmarked) [WK-15, 1-(3,6-Difluoro-9H-carbazol-9-yl)-3-(phenethylamino)propan-2-ol] | 91 to 93 °C | – | 75% | 82% | – | – | 7.7 µM | – | – | –
Oc1ccc(CCNCC(O)Cn2c3ccccc3c3cc(F)ccc32)cc1 (centres unmarked) [WK-3, 4-(2-((3-(3-Fluoro-9H-carbazol-9-yl)-2-hydroxypropyl)amino)ethyl)phenol] | 140 to 142 °C | – | 71% | 79% | – | – | 27 µM | – | – | –
